Assay results from the NIST ThermoML archive (doi:10.1021/acs.jced.6b00536).
Several values for one entry are separate records, joined by “and”; a condition that tells them apart may be missing. Equal entries are not always repeated.

Details: Gas, Frequency=0.05 MHz, Single path-length method

FC(F)(F)C(F)(F)C(F)(F)F [octafluoropropane]
Details | speed of sound
287.9 K, 253.6 kPa | 109.81 m/s
287.9 K, 261.1 kPa | 109.59 m/s
287.9 K, 284.7 kPa | 108.91 m/s
293.2 K, 73.1 kPa | 115.72 m/s
293.2 K, 84.2 kPa | 115.45 m/s
293.2 K, 84.3 kPa | 115.46 m/s
293.2 K, 94.5 kPa | 115.2 m/s
293.2 K, 94.6 kPa | 115.21 m/s
293.2 K, 105.6 kPa | 114.93 m/s and 114.94 m/s
293.2 K, 120.1 kPa | 114.57 m/s
293.2 K, 139.6 kPa | 114.1 m/s
293.2 K, 169.6 kPa | 113.36 m/s
293.2 K, 198.9 kPa | 112.61 m/s
293.2 K, 231.3 kPa | 111.79 m/s
293.2 K, 231.4 kPa | 111.79 m/s
293.2 K, 258.8 kPa | 111.04 m/s
293.2 K, 258.9 kPa | 111.05 m/s
293.2 K, 266.6 kPa | 110.85 m/s
293.2 K, 266.7 kPa | 110.86 m/s
293.2 K, 290.7 kPa | 110.18 m/s
293.2 K, 290.8 kPa | 110.19 m/s
298.4 K, 74.5 kPa | 116.78 m/s
298.4 K, 85.8 kPa | 116.53 m/s
298.4 K, 96.3 kPa | 116.29 m/s
298.4 K, 107.6 kPa | 116.05 m/s
298.4 K, 122.4 kPa | 115.7 m/s
298.4 K, 142.2 kPa | 115.21 m/s
298.4 K, 172.8 kPa | 114.5 m/s
298.4 K, 202.9 kPa | 113.8 m/s
298.4 K, 235.9 kPa | 112.97 m/s
298.4 K, 264.2 kPa | 112.28 m/s
298.4 K, 272.1 kPa | 112.08 m/s
298.4 K, 296.8 kPa | 111.46 m/s
303.7 K, 75.8 kPa | 117.86 m/s
303.7 K, 87.4 kPa | 117.61 m/s
303.7 K, 98.1 kPa | 117.39 m/s
303.7 K, 109.5 kPa | 117.14 m/s
303.7 K, 124.7 kPa | 116.78 m/s
303.7 K, 144.9 kPa | 116.33 m/s
303.7 K, 176.2 kPa | 115.66 m/s
303.7 K, 206.7 kPa | 114.96 m/s
303.7 K, 240.6 kPa | 114.17 m/s
303.7 K, 269.4 kPa | 113.49 m/s
303.7 K, 277.6 kPa | 113.32 m/s
308.9 K, 77.1 kPa | 118.9 m/s
308.9 K, 88.9 kPa | 118.66 m/s
308.9 K, 99.8 kPa | 118.44 m/s
308.9 K, 111.5 kPa | 118.19 m/s
308.9 K, 127 kPa | 117.87 m/s
308.9 K, 147.5 kPa | 117.44 m/s
308.9 K, 179.4 kPa | 116.75 m/s
308.9 K, 210.6 kPa | 116.08 m/s
308.9 K, 245.2 kPa | 115.33 m/s
308.9 K, 274.7 kPa | 114.68 m/s
308.9 K, 283 kPa | 114.5 m/s
314.1 K, 78.5 kPa | 119.93 m/s
314.1 K, 90.4 kPa | 119.69 m/s
314.1 K, 101.6 kPa | 119.47 m/s
314.1 K, 113.4 kPa | 119.24 m/s
314.1 K, 129.2 kPa | 118.93 m/s
314.1 K, 150.2 kPa | 118.52 m/s
314.1 K, 182.7 kPa | 117.85 m/s
314.1 K, 214.5 kPa | 117.21 m/s
314.1 K, 249.8 kPa | 116.47 m/s
314.1 K, 279.9 kPa | 115.84 m/s
314.1 K, 288.4 kPa | 115.67 m/s
319.4 K, 79.8 kPa | 120.96 m/s
319.4 K, 92 kPa | 120.74 m/s
319.4 K, 103.3 kPa | 120.52 m/s
319.4 K, 115.4 kPa | 120.29 m/s
319.4 K, 131.4 kPa | 119.98 m/s
319.4 K, 152.8 kPa | 119.58 m/s
319.4 K, 185.9 kPa | 118.95 m/s
319.4 K, 218.4 kPa | 118.33 m/s
319.4 K, 254.4 kPa | 117.62 m/s
319.4 K, 285.1 kPa | 117.02 m/s
319.4 K, 293.8 kPa | 116.85 m/s
324.6 K, 81.2 kPa | 121.98 m/s
324.6 K, 93.5 kPa | 121.75 m/s
324.6 K, 105.1 kPa | 121.56 m/s
324.6 K, 117.4 kPa | 121.32 m/s
324.6 K, 133.7 kPa | 121.03 m/s
324.6 K, 155.4 kPa | 120.64 m/s
324.6 K, 189.2 kPa | 120.02 m/s
324.6 K, 222.3 kPa | 119.43 m/s
324.6 K, 259 kPa | 118.74 m/s
324.6 K, 290.3 kPa | 118.16 m/s
324.6 K, 299.2 kPa | 117.99 m/s
